Results: patent publication US9790210B2, “N-(monocyclic aryl),N'-pyrazolyl-urea, thiourea, guanidine and cyanoguanidine compounds as TrkA kinase inhibitors” (Array BioPharma Inc., priority 2012, dated 2017)

Key:
Test in all cases: KinaseProfiler
Type in all cases: biochemical
Details in all cases: 10 μM, ATP near Km
PTK5 = molecular target: T1, PTK5 (Homo sapiens, UniProt P42685)
T1 construct: purchased Millipore, Inc. (KinaseProfiler service)
In short: (§1)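 Duplicate determinations at 10 μM test compound; ATP approx. Km for each target. POC reported as replicate mean.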

Rsk2 = molecular target: T2, Rsk2 (Homo sapiens, UniProt P51812)
T2 construct: purchased Millipore, Inc. (KinaseProfiler service)
In short: as §1

DYRK2 = molecular target: T3, DYRK2 (Homo sapiens, UniProt Q92630)
T3 construct: purchased Millipore, Inc. (KinaseProfiler service)
In short: as §1

MST2 = molecular target: T4, MST2 (Homo sapiens, UniProt Q13188)
T4 construct: purchased Millipore, Inc. (KinaseProfiler service)
In short: as §1

AKT1 = molecular target: T5, AKT1 (Homo sapiens, UniProt P31749)
T5 construct: purchased Millipore (KinaseProfiler service)
In short: as §1

Ab12 = molecular target: T6, Ab12 (Homo sapiens, UniProt P42684)
T6 construct: purchased Millipore (KinaseProfiler service)
In short: as §1

ROCK-I = molecular target: T7, ROCK-I (Homo sapiens, UniProt Q13464)
T7 construct: purchased Millipore, Inc. (KinaseProfiler service)
In short: as §1

PDK1 = molecular target: T8, PDK1 (Homo sapiens, UniProt O15530)
T8 construct: purchased Millipore, Inc. (KinaseProfiler service)
In short: as §1

IR Activated = molecular target: T9, IR Activated (Homo sapiens, UniProt P06213)
T9 construct: purchased Millipore, Inc. (KinaseProfiler service)
In short: as §1

DAPK2 = molecular target: T10, DAPK2 (Homo sapiens, UniProt Q9UIK4)
T10 construct: purchased Millipore, Inc. (KinaseProfiler service)
In short: as §1

Fyn = molecular target: T11, Fyn (Homo sapiens, UniProt P06241)
T11 construct: purchased Millipore, Inc. (KinaseProfiler service)
In short: as §1

MKK6 = molecular target: T12, MKK6 (Homo sapiens, UniProt P52564)
T12 construct: purchased Millipore, Inc. (KinaseProfiler service)
In short: as §1

BLK_m = molecular target: T13, BLK_m (Mus musculus, UniProt P16277)
T13 construct: purchased Millipore (KinaseProfiler service)
In short: as §1

LIMK1 = molecular target: T14, LIMK1 (Homo sapiens, UniProt P53667)
T14 construct: purchased Millipore, Inc. (KinaseProfiler service)
In short: as §1

MRCKalpha = molecular target: T15, MRCKalpha (Homo sapiens, UniProt Q5VT25)
T15 construct: purchased Millipore, Inc. (KinaseProfiler service)
In short: as §1

SGK2 = molecular target: T16, SGK2 (Homo sapiens, UniProt Q9HBY8)
T16 construct: purchased Millipore, Inc. (KinaseProfiler service)
In short: as §1

mTOR = molecular target: T17, mTOR (Homo sapiens, UniProt P42345)
T17 construct: purchased Millipore, Inc. (KinaseProfiler service)
In short: (§2)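 Off-target activity was measured at a single compound concentration of 10 μM, run in duplicate with ATP near the Km of each kinase. Values are percent of control (POC), averaged over the two replicates.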

JAK3 = molecular target: T18, JAK3 (Homo sapiens, UniProt P52333)
T18 construct: purchased Millipore, Inc. (KinaseProfiler service)
In short: as §1

CK2 = molecular target: T19, CK2 (Homo sapiens, UniProt P68400)
T19 construct: purchased Millipore, Inc. (KinaseProfiler service)
In short: as §1

CDK2/cyclinA = molecular target: T20, CDK2/cyclinA (Homo sapiens, UniProt P24941)
T20 construct: purchased Millipore, Inc. (KinaseProfiler service)
In short: as §1

FGFR1 = molecular target: T21, FGFR1 (Homo sapiens, UniProt P11362)
T21 construct: purchased Millipore, Inc. (KinaseProfiler service)
In short: as §1

IKKbeta = molecular target: T22, IKKbeta (Homo sapiens, UniProt O14920)
T22 construct: purchased Millipore, Inc. (KinaseProfiler service)
In short: as §1

DCAMKL2 = molecular target: T23, DCAMKL2 (Homo sapiens, UniProt Q8N568)
T23 construct: purchased Millipore, Inc. (KinaseProfiler service)
In short: as §1

MKNK2 = molecular target: T24, MKNK2 (Homo sapiens, UniProt Q9HBH9)
T24 construct: purchased Millipore, Inc. (KinaseProfiler service)
In short: as §1

MRCKbeta = molecular target: T25, MRCKbeta (Homo sapiens, UniProt Q9Y5S2)
T25 construct: purchased Millipore, Inc. (KinaseProfiler service)
In short: as §1

IRAK1 = molecular target: T26, IRAK1 (Homo sapiens, UniProt P51617)
T26 construct: purchased Millipore, Inc. (KinaseProfiler service)
In short: as §1

Plk3 = molecular target: T27, Plk3 (Homo sapiens, UniProt Q9H4B4)
T27 construct: purchased Millipore, Inc. (KinaseProfiler service)
In short: as §1

EphA2 = molecular target: T28, EphA2 (Homo sapiens, UniProt P29317)
T28 construct: purchased Millipore, Inc. (KinaseProfiler service)
In short: as §1

PKD2 = molecular target: T29, PKD2 (Homo sapiens, UniProt Q9BZL6)
T29 construct: purchased Millipore, Inc. (KinaseProfiler service)
In short: as §1

CAMK1d = molecular target: T30, CAMK1d (Homo sapiens, UniProt Q8IU85)
T30 construct: purchased Millipore (KinaseProfiler service)
In short: as §1

PRK2 = molecular target: T31, PRK2 (Homo sapiens, UniProt Q16513)
T31 construct: purchased Millipore, Inc. (KinaseProfiler service)
In short: as §1

PhKgamma2 = molecular target: T32, PhKgamma2 (Homo sapiens, UniProt P15735)
T32 construct: purchased Millipore, Inc. (KinaseProfiler service)
In short: as §1

NEK6 = molecular target: T33, NEK6 (Homo sapiens, UniProt Q9HC98)
T33 construct: purchased Millipore, Inc. (KinaseProfiler service)
In short: as §1

Lck = molecular target: T34, Lck (Homo sapiens, UniProt P06239)
T34 construct: purchased Millipore, Inc. (KinaseProfiler service)
In short: as §1

Syk = molecular target: T35, Syk (Homo sapiens, UniProt P43405)
T35 construct: purchased Millipore, Inc. (KinaseProfiler service)
In short: as §2

PKCtheta = molecular target: T36, PKCtheta (Homo sapiens, UniProt Q04759)
T36 construct: purchased Millipore, Inc. (KinaseProfiler service)
In short: as §1

PKAC-alpha = molecular target: T37, PKAC-alpha (Homo sapiens, UniProt P17612)
T37 construct: purchased Millipore, Inc. (KinaseProfiler service)
In short: as §1

MSK1 = molecular target: T38, MSK1 (Homo sapiens, UniProt O75582)
T38 construct: purchased Millipore, Inc. (KinaseProfiler service)
In short: as §1

SRC = molecular target: T39, SRC (Homo sapiens, UniProt P12931)
T39 construct: purchased Millipore, Inc. (KinaseProfiler service)
In short: as §1

CDK5/p25 = molecular target: T40, CDK5/p25 (Homo sapiens, UniProt Q00535)
T40 construct: purchased Millipore, Inc. (KinaseProfiler service)
In short: as §1

HIPK3 = molecular target: T41, HIPK3 (Homo sapiens, UniProt Q9H422)
T41 construct: purchased Millipore, Inc. (KinaseProfiler service)
In short: as §1

T18 sequence (P52333 whole entry): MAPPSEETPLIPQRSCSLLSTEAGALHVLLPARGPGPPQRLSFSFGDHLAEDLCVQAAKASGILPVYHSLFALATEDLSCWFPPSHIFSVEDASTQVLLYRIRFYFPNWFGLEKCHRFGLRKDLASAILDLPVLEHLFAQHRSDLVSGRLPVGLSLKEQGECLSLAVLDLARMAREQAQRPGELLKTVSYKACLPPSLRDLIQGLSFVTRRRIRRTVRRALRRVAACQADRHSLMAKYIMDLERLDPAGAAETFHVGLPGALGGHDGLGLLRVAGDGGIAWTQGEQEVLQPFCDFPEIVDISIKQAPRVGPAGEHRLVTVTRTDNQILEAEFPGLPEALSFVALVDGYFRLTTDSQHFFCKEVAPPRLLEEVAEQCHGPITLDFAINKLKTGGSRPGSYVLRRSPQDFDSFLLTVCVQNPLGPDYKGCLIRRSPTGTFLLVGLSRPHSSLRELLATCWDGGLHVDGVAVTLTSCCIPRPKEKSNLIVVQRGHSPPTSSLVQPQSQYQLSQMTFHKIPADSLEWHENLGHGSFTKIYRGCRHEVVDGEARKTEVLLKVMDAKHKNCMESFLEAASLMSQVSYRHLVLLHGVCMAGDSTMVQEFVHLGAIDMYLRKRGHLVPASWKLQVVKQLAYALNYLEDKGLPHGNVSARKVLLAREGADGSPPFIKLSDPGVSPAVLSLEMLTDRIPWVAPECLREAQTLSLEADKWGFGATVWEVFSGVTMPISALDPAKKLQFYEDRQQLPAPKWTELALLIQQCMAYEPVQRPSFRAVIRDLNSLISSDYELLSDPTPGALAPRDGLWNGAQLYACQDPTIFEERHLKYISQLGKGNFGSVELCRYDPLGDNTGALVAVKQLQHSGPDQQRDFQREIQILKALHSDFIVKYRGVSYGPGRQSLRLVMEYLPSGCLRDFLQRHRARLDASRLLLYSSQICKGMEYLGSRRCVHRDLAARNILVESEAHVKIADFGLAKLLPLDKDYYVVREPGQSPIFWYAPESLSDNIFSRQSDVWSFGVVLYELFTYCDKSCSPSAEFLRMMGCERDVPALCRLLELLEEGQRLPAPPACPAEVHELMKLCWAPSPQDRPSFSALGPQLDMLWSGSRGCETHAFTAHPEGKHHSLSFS
T39 sequence (P12931 whole entry): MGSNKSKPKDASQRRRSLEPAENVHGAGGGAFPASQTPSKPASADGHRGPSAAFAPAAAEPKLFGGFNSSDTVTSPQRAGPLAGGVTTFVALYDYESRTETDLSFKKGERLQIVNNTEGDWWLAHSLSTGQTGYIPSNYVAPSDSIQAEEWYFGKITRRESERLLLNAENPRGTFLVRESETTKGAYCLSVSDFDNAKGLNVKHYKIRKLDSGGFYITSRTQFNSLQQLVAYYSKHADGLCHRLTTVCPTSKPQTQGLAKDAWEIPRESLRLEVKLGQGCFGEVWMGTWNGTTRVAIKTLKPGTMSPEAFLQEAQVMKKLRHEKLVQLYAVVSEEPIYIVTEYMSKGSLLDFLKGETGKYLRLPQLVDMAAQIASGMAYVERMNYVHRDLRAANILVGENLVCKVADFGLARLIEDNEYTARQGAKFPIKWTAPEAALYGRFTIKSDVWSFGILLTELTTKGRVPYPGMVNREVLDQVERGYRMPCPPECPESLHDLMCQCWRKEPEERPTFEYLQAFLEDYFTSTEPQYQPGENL
T3 sequence (Q92630 whole entry): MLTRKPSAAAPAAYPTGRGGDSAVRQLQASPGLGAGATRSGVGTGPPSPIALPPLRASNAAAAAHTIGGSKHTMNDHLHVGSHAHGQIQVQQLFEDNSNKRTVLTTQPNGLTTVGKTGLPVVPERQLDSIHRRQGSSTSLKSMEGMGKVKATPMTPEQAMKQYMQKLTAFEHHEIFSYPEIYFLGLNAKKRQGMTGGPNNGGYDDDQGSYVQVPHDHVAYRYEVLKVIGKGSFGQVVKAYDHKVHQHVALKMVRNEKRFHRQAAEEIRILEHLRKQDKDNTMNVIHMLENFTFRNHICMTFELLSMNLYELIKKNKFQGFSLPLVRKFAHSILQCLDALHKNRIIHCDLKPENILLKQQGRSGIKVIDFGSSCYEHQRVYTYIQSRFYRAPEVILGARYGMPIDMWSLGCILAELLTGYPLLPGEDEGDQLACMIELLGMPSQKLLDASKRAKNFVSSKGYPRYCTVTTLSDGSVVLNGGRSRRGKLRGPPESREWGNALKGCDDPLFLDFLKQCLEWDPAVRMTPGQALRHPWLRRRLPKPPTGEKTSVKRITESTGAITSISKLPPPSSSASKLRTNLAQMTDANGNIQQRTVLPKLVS
T24 sequence (Q9HBH9 whole entry): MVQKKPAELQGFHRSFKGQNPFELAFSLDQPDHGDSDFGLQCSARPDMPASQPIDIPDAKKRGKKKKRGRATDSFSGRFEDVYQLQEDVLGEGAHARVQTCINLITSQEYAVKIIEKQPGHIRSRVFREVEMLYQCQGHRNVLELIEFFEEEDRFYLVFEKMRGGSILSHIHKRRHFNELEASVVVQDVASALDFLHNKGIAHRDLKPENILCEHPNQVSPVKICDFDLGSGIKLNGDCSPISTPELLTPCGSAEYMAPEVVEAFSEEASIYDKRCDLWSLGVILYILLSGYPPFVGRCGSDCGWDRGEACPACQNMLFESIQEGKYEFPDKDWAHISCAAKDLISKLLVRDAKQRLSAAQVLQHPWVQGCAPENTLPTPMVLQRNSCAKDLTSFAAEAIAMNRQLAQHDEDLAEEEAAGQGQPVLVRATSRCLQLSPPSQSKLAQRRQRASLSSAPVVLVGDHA
T31 sequence (Q16513 whole entry): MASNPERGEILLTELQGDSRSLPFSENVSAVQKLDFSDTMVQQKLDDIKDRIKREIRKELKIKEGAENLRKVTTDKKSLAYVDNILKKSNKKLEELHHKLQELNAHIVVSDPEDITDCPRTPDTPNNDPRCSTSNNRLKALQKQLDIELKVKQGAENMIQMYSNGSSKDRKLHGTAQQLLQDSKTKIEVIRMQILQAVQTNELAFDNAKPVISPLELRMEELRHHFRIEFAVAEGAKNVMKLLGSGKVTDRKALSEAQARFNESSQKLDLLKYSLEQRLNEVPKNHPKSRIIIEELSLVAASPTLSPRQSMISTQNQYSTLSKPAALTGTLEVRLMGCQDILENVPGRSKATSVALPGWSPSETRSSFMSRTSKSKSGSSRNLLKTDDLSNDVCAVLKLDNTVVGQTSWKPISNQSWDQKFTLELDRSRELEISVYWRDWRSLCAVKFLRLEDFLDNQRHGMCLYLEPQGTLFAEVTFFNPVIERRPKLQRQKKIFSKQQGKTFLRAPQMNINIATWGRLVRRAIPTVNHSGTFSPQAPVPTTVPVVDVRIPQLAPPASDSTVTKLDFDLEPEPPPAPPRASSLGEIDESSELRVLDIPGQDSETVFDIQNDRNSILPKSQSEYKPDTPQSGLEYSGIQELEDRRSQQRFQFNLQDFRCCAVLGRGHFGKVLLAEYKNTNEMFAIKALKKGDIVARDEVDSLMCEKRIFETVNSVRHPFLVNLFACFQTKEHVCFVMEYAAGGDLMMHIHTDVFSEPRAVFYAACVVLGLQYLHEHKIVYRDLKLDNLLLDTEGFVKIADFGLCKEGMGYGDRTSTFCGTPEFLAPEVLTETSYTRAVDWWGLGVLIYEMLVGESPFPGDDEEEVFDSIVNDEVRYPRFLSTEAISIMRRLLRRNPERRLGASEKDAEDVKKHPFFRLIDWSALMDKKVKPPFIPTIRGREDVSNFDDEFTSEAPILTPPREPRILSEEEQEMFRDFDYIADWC
T13 sequence (P16277 whole entry): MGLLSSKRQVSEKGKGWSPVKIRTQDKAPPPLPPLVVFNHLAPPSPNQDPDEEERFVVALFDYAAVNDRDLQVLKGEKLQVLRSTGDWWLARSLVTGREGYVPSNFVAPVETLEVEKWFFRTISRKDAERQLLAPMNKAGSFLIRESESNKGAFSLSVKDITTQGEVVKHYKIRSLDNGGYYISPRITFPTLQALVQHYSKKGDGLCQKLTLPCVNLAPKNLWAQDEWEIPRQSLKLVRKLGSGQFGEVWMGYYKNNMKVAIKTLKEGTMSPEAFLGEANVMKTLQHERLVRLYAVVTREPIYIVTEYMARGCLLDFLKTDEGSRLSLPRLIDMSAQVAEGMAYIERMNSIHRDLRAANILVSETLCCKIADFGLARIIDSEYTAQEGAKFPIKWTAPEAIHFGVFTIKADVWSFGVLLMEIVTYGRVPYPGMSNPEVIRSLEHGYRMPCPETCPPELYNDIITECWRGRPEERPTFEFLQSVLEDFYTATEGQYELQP
T38 sequence (O75582 whole entry): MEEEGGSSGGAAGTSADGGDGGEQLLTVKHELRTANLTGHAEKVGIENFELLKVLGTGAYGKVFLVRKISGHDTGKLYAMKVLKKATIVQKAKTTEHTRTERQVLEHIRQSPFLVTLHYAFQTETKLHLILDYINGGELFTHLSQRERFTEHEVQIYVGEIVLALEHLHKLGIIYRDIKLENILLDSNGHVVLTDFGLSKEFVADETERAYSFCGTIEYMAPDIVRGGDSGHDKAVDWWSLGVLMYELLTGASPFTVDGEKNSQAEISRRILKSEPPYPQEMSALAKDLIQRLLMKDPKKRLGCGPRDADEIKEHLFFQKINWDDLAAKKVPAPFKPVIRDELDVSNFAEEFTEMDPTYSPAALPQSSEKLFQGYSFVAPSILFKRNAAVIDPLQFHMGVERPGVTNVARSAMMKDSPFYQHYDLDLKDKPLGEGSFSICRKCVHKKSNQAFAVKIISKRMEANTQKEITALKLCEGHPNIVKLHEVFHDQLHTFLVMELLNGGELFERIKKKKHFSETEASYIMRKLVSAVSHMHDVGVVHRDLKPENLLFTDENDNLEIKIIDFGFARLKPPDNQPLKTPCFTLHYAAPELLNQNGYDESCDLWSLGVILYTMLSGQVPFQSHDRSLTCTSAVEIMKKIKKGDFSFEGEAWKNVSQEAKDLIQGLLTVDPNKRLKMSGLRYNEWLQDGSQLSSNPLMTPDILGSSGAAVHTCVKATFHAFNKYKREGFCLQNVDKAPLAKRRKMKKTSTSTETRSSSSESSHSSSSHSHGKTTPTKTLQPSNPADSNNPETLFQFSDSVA

`COCCCc1cc(Cl)c(Cl)cc1NC(=O)Nc1c(C)c(-c2cnn(C)c2)nn1-c1ccccc1` [Example 15, 1-(4,5-dichloro-2-(3-methoxypropyl)phenyl)-3-(1′,4-dimethyl-1-phenyl-1H,1′H-[3,4′-bipyrazol]-5-yl)urea] was tested, and the “Avg POC” value (PTK5) was 102.5 POC, the “Avg POC” value (Rsk2) was 136.5 POC and the “Avg POC” value (DYRK2) was 93.5 POC. For the same compound, the “Avg POC” value (MST2) was 101.5 POC, the “Avg POC” value (AKT1) was 120 POC and the “Avg POC” value (Ab12) was 108 POC. The “Avg POC” value (ROCK-I) was 117.5 POC, the “Avg POC” value (PDK1) was 116.5 POC and the “Avg POC” value (IR Activated) was 119.5 POC. For the same compound, the “Avg POC” value (DAPK2) was 104.5 POC, the “Avg POC” value (Fyn) was 111.5 POC and the “Avg POC” value (MKK6) was 124.5 POC. The “Avg POC” value (BLK_m) was 118.5 POC, the “Avg POC” value (LIMK1) was 93.5 POC and the “Avg POC” value (MRCKalpha) was 137 POC. For the same compound, the “Avg POC” value (SGK2) was 117.5 POC, the “Avg POC” value (mTOR) was 102.5 POC and the “Avg POC” value (JAK3) was 111 POC. The “Avg POC” value (CK2) was 94.5 POC, the “Avg POC” value (CDK2/cyclinA) was 112.5 POC and the “Avg POC” value (FGFR1) was 111.5 POC. For the same compound, the “Avg POC” value (IKKbeta) was 113.5 POC, the “Avg POC” value (DCAMKL2) was 136 POC and the “Avg POC” value (MKNK2) was 106 POC. The “Avg POC” value (MRCKbeta) was 105.5 POC, the “Avg POC” value (IRAK1) was 103 POC and the “Avg POC” value (Plk3) was 109 POC. The “Avg POC” value (EphA2) was 104 POC, the “Avg POC” value (PKD2) was 98.5 POC and the “Avg POC” value (CAMK1d) was 103 POC. The “Avg POC” value (PRK2) was 101.5 POC, the “Avg POC” value (PhKgamma2) was 110.5 POC and the “Avg POC” value (NEK6) was 111.5 POC. For the same compound, the “Avg POC” value (Lck) was 94.5 POC, the “Avg POC” value (Syk) was 100 POC and the “Avg POC” value (PKCtheta) was 105 POC. For the same compound, the “Avg POC” value (PKAC-alpha) was 149 POC, the “Avg POC” value (MSK1) was 132.5 POC and the “Avg POC” value (SRC) was 90 POC. For the same compound, the “Avg POC” value (CDK5/p25) was 106 POC and the “Avg POC” value (HIPK3) was 101 POC.
